# Experimental data as given in patent US20230277630A1, “METHODS AND COMPOSITIONS FOR TREATING AMYOTROPHIC LATERAL SCLEROSIS” (Amylyx Pharmaceuticals, Inc., priority 2022, published 2023).
# Read-outs that look alike come from different tables or passages of the source.
# Legend:
# [1] = biological target: T1, OATP1B3 (Homo sapiens, UniProt Q9NPD5)
# T1 sequence (Q9NPD5 1-702): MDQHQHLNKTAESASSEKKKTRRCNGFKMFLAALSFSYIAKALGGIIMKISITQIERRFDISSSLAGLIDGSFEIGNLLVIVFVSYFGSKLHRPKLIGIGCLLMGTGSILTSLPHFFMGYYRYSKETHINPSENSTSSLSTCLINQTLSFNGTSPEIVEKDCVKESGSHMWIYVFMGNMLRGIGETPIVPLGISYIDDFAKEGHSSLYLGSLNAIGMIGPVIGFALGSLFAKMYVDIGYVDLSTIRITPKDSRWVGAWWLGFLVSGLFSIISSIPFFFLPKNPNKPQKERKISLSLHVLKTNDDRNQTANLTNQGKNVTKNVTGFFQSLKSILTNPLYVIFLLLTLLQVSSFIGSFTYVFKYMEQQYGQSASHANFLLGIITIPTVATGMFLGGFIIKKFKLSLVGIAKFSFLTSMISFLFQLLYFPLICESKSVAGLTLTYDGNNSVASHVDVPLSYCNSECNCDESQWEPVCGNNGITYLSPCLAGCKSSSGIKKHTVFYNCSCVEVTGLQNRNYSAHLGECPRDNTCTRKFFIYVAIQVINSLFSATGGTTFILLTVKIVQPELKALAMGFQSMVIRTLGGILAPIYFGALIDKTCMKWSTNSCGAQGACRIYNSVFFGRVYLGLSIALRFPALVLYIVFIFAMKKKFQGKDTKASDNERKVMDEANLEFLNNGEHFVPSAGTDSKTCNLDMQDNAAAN
# [2] = test system: human liver microsomes (HLM); experiment: CYP reaction phenotyping using HLM and chemical inhibitors (% remaining); type: in vitro ADME; conditions: human, microsomes, 5 μM, pH 7.4
# Excerpt: (§1) % Remaining of TA=100×At/A0
# (§2) Where, At and A0 are the peak area ratio of TA to IS at time t and at time zero, respectively.
# [3] = biological target: T2, human liver microsomes (HLM) (Homo sapiens, UniProt P10635); experiment: as above; type: in vitro ADME; conditions: human, microsomes, 5 μM, pH 7.4
# T2 construct: from tissue; host or cells: pooled human liver microsomes
# T2 sequence (P10635 whole entry): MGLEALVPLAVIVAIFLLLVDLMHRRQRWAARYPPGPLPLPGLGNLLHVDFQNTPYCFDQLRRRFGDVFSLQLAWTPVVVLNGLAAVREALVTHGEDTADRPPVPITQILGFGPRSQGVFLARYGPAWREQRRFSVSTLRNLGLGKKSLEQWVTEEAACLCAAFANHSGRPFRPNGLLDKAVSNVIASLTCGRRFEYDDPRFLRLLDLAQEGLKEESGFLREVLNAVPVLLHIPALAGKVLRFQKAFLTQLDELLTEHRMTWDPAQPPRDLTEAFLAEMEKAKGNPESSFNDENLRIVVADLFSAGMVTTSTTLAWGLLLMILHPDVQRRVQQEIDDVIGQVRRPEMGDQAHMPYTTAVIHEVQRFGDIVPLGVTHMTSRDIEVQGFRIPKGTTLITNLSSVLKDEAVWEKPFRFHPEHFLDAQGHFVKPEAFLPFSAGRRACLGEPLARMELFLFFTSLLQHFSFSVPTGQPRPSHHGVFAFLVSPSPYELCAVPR
# Excerpt: as §1, §2
# [4] = biological target: T3, human liver microsomes (HLM) (Homo sapiens, UniProt P05177); experiment: as above; type: in vitro ADME; conditions: human, microsomes, 5 μM, pH 7.4
# T3 construct: from tissue; host or cells: pooled human liver microsomes
# T3 sequence (P05177 1-516): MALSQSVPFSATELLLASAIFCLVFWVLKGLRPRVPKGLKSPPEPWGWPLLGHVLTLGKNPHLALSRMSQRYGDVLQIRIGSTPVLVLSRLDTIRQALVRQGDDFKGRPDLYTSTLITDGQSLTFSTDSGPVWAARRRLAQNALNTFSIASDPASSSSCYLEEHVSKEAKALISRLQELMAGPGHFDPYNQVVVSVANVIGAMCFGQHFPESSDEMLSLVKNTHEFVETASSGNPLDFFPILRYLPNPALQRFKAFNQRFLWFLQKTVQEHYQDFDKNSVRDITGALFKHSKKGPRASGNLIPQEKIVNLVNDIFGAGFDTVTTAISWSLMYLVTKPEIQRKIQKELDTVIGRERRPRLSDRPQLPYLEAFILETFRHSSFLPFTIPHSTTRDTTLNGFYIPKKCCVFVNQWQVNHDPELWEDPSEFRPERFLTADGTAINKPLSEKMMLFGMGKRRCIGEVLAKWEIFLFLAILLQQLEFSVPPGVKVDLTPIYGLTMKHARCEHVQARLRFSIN
# Excerpt: as §1, §2
# [5] = biological target: T4, human liver microsomes (HLM) (Homo sapiens, UniProt P33261); experiment: as above; type: in vitro ADME
# T4 construct: from tissue; host or cells: pooled human liver microsomes
# T4 sequence (P33261 whole entry): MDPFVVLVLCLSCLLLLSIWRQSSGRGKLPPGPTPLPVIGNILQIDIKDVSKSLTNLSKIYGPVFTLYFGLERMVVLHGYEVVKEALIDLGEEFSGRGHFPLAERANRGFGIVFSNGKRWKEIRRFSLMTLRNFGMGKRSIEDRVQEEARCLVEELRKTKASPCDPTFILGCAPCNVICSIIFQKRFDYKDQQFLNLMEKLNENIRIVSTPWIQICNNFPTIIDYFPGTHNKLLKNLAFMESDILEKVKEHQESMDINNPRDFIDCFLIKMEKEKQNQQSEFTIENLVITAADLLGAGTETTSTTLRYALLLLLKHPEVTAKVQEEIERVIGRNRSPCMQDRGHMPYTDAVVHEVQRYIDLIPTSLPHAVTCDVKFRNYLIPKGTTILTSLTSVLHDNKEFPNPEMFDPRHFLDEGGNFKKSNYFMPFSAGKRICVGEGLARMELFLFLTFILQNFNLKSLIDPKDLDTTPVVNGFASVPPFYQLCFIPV
# Excerpt: as §1, §2
# [6] = biological target: T5, human liver microsomes (HLM) (Homo sapiens, UniProt P11712); experiment: as above; type: in vitro ADME; conditions: human, microsomes, 5 μM, pH 7.4
# T5 construct: from tissue; host or cells: pooled human liver microsomes
# T5 sequence (P11712 whole entry): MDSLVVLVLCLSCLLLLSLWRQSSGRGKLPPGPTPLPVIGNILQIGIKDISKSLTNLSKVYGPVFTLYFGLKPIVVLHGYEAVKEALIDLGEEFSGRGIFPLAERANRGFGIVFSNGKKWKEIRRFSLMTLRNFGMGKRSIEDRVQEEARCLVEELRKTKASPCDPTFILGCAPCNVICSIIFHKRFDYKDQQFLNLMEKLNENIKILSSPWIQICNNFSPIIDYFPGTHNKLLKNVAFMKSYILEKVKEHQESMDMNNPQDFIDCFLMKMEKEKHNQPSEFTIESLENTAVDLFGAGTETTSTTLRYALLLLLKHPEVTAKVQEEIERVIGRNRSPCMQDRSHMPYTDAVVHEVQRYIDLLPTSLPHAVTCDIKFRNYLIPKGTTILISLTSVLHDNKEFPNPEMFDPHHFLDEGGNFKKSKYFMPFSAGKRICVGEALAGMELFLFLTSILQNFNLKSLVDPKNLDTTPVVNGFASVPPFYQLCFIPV
# Excerpt: as §1, §2
# [7] = biological target: MATE2K (Homo sapiens, UniProt Q86VL8)
# MATE2K, sequence (Q86VL8 1-566 isoform Q86VL8-3): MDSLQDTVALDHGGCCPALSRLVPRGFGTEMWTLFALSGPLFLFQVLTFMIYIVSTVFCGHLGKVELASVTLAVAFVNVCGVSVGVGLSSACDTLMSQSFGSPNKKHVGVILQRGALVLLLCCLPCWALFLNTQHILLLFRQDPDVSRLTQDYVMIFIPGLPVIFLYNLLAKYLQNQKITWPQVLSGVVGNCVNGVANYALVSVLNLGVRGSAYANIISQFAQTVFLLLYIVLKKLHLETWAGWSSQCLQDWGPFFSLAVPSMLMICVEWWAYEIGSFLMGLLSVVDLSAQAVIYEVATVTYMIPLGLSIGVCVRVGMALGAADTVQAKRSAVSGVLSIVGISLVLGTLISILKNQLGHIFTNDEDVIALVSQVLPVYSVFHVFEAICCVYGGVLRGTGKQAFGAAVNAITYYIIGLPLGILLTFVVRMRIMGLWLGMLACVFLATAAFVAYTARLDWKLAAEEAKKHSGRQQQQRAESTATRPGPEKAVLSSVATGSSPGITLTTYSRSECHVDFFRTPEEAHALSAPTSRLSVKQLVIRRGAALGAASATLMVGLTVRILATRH
# [8] = biological target: T6, hrCYP1A2 (Homo sapiens, UniProt P05177); conditions: recombinant enzyme, 5 μM, pH 7.4
# T6 sequence (P05177 1-516): T3 sequence (P05177 1-516)
# Method: (§3) The reaction was initiated by the addition of NADPH, followed by incubation at 37° C.
# as §1
# (§4) Where, At is the peak area ratio of TA to internal standard (IS) at time t, A0 is the average peak area ratio of TA to IS at time zero.
# [9] = biological target: T7, hrCYP2B6 (Homo sapiens, UniProt P20813); conditions: recombinant enzyme, 5 μM, pH 7.4
# T7 sequence (P20813 1-491): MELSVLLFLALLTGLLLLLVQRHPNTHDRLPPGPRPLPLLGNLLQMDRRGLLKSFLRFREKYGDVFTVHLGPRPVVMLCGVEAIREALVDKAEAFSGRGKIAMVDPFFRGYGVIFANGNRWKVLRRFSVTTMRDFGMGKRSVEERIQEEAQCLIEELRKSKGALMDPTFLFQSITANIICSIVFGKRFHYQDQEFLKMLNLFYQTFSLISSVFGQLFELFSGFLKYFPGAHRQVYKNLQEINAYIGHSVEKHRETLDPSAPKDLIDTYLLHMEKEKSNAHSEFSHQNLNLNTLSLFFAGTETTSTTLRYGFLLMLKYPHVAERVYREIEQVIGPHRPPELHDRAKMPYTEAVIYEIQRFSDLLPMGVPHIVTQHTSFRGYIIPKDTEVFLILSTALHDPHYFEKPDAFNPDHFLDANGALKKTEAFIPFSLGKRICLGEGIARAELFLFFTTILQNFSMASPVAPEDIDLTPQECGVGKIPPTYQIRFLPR
# Method: as §3, §1, §4
# [10] = biological target: P-gp (Homo sapiens, UniProt P08183); experiment: P-gp IC50 assessment, bidirectional digoxin transport in C2BBe1 cells
# P-gp, sequence (P08183 whole entry): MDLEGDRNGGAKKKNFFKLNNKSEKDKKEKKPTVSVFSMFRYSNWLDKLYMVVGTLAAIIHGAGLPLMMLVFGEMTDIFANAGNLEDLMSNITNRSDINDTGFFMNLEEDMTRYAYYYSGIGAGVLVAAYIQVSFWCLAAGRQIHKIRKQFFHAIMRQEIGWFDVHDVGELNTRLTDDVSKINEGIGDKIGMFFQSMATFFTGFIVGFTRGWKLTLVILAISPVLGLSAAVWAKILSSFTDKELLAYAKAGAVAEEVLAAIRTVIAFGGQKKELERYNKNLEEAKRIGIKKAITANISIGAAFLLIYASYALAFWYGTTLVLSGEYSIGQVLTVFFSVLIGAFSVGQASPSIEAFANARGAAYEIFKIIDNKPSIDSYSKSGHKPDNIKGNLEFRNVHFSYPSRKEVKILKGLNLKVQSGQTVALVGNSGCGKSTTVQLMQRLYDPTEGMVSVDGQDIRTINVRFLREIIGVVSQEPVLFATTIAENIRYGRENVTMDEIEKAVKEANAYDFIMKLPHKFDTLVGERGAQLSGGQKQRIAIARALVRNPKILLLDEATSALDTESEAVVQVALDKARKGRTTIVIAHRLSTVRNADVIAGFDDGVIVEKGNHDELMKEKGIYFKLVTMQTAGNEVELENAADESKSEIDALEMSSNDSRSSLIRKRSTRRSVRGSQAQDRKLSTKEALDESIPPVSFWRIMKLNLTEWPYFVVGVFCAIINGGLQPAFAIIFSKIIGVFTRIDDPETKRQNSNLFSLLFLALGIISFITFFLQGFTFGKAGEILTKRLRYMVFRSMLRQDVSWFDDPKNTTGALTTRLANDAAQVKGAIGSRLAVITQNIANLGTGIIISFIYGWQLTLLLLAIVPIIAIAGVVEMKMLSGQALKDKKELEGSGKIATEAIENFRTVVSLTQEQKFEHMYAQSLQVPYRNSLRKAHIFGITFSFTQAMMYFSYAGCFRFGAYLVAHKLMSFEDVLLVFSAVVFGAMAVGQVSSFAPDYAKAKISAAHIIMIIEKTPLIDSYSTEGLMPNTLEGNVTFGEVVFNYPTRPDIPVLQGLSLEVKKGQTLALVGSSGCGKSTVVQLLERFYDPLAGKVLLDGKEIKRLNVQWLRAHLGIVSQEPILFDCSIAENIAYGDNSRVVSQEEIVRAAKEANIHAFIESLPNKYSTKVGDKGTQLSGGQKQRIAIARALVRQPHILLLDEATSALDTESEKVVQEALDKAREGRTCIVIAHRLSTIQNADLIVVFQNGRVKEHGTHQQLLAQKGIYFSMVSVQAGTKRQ
# Method: After 30 minutes, the pre-incubation solution was aspirated.
# [11] = human, microsomes, 0 h, 5 μM, pH 7.4
# [12] = human, microsomes, 5 min, 5 μM, pH 7.4
# [13] = human, microsomes, 20 min, 5 μM, pH 7.4
# [14] = human, microsomes, 1 h, 5 μM, pH 7.4
structure (smiles),measurement,setting,value
"O=C(O)CCCc1ccccc1 [PB, sodium phenylbutyrate]",IC50,[1],3630 to 10900 µM
same,% Remaining of TA (n = 3) Average,[2]; 5 min,109%
same,% Remaining of TA (n = 3) Average,[2]; 20 min,113%
same,% Remaining of TA (n = 3) Average,[3]; 0 h,100%
same,% Remaining of TA (n = 3) Average,[3]; 20 min,97.5%
same,% Remaining of TA (n = 3) Average,[3]; 1 h,98.8%
same,% Remaining of TA (n = 3) Average,[4]; 0 h,100%
same,% Remaining of TA (n = 3) Average,[4]; 5 min,116%
same,% Remaining of TA (n = 3) Average,[4]; 10 min,131%
same,% Remaining of TA (n = 3) Average,[4]; 20 min,125%
same,% Remaining of TA (n = 3) Average,[4]; 0.5 h,127%
same,% Remaining of TA (n = 3) Average,[4]; 1 h,128%
same,% Remaining of TA (n = 3) Average,[5]; [11],100%
same,% Remaining of TA (n = 3) Average,[5]; [12],101%
same,% Remaining of TA (n = 3) Average,[5]; [13],101%
same,% Remaining of TA (n = 3) Average,"[5]; human, microsomes, 0.5 h, 5 μM, pH 7.4",101%
same,% Remaining of TA (n = 3) Average,[5]; [14],101%
same,% Remaining of TA (n = 3) Average,[6]; 0 h,100%
same,% Remaining of TA (n = 3) Average,[6]; 5 min,103%
same,% Remaining of TA (n = 3) Average,[6]; 20 min,98.5%
same,% Remaining of TA (n = 3) Average,[6]; 0.5 h,99.6%
same,% Remaining of TA (n = 3) Average,[6]; 1 h,97.6%
same,IC50,[7],> 73900 µM
same,% Remaining of TA,[8]; 0 h,100%
same,% Remaining of TA,[8]; 5 min,98.3%
same,% Remaining of TA,[8]; 20 min,99.9%
same,% Remaining of TA,[8]; 0.5 h,101%
same,% Remaining of TA,[8]; 1 h,95.1%
same,% remained after 60 minutes of incubation,[8]; 1 h,greater than 90%
same,% remained after 60 minutes of incubation,[9]; 1 h,greater than 90%
same,IC50,[10],1790 to 5370 µM
"C[C@H](CCC(=O)NCCS(=O)(=O)O)[C@H]1CC[C@H]2[C@@H]3[C@@H](O)C[C@@H]4C[C@H](O)CC[C@]4(C)[C@H]3CC[C@]12C [TUDCA, tauroursodeoxycholic acid]",IC50,[1],38.7 to 116 µM
same,% Remaining of TA (n = 3) Average,[2]; 0 h,100%
same,% Remaining of TA (n = 3) Average,[3]; 0 h,100%
same,% Remaining of TA (n = 3) Average,[3]; 5 min,101%
same,% Remaining of TA (n = 3) Average,[3]; 10 min,110%
same,% Remaining of TA (n = 3) Average,[3]; 20 min,99.7%
same,% Remaining of TA (n = 3) Average,[3]; 0.5 h,101%
same,% Remaining of TA (n = 3) Average,[3]; 1 h,87.2%
same,% Remaining of TA (n = 3) Average,[4]; 0 h,100%
same,% Remaining of TA (n = 3) Average,[4]; 5 min,123%
same,% Remaining of TA (n = 3) Average,[4]; 10 min,123%
same,% Remaining of TA (n = 3) Average,[4]; 20 min,121%
same,% Remaining of TA (n = 3) Average,[4]; 0.5 h,120%
same,% Remaining of TA (n = 3) Average,[4]; 1 h,128%
same,% Remaining of TA (n = 3) Average,[5]; [11],100%
same,% Remaining of TA (n = 3) Average,[5]; [12],106%
same,% Remaining of TA (n = 3) Average,"[5]; human, microsomes, 10 min, 5 μM, pH 7.4",93.0%
same,% Remaining of TA (n = 3) Average,[5]; [13],93.1%
same,% Remaining of TA (n = 3) Average,[5]; [14],94.5%
same,% Remaining of TA (n = 3) Average,"[5]; reversible incubation condition, CYP2C19 (+NADPH, +N3B), 30 min",92.1%
same,% Remaining of TA (n = 3) Average,[6]; 0 h,100%
same,% Remaining of TA (n = 3) Average,[6]; 5 min,102%
same,% Remaining of TA (n = 3) Average,[6]; 10 min,96.9%
same,% Remaining of TA (n = 3) Average,[6]; 20 min,92.8%
same,% Remaining of TA (n = 3) Average,[6]; 0.5 h,95.0%
same,% Remaining of TA (n = 3) Average,[6]; 1 h,95.3%
same,IC50,[7],> 810 µM
same,% Remaining of TA,[8]; 0 h,100%
same,% Remaining of TA,[8]; 5 min,98.0%
same,% Remaining of TA,[8]; 10 min,101%
same,% Remaining of TA,[8]; 20 min,99.9%
same,% Remaining of TA,[8]; 0.5 h,103%
same,% Remaining of TA,[8]; 1 h,90.5%
same,% remained after 60 minutes of incubation,[8]; 1 h,greater than 90%
same,% Remaining of TA,[9]; 0 h,100%
same,% Remaining of TA,[9]; 5 min,97.6%
same,% Remaining of TA,[9]; 10 min,97.0%
same,% Remaining of TA,[9]; 20 min,99.3%
same,% Remaining of TA,[9]; 0.5 h,99.7%
same,% Remaining of TA,[9]; 1 h,101%
same,% remained after 60 minutes of incubation,[9]; 1 h,greater than 90%
same,IC50,[10],222 to 667 µM
